From ChEMBL document CHEMBL5715954, “Silencing c-Myc translation as a therapeutic strategy through targeting PI3Kδ and CK1ε in hematological malignancies” (Blood, 2017)
Calls of active or inactive are those of the source. The rule behind the calls is not given here.

Tests used:
[1] = biological target: Myc proto-oncogene protein (Homo sapiens) (UniProt P01106); experiment: Inhibition of c-Myc in human LY7 cells assessed as reduction in eIF4B expression at 5 nM incubated for 24 hrs by Western blot analysis; type: cell-based
Sequence of Myc proto-oncogene protein (Homo sapiens) (P01106 whole entry, canonical isoform): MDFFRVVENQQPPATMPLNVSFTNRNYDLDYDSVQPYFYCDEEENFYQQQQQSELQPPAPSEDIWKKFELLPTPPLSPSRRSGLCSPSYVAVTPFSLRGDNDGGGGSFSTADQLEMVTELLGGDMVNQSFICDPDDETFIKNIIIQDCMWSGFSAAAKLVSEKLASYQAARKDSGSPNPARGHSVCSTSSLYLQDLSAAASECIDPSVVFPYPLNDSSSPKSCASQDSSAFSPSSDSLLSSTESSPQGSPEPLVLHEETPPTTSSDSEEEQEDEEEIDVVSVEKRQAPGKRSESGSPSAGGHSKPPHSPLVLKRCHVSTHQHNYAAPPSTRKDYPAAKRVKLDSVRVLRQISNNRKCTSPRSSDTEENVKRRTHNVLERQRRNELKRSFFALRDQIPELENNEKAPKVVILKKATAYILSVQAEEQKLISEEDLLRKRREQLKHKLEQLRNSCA

[2] = biological target: Myc proto-oncogene protein (Homo sapiens) (UniProt P01106); experiment: Inhibition of c-Myc in human LY10 cells assessed as reduction in E2F1 expression at 2 nM incubated for 24 hrs by Western blot analysis; type: cell-based
[3] = biological target: Myc proto-oncogene protein (Homo sapiens) (UniProt P01106); experiment: Inhibition of c-Myc in human LY10 cells assessed as reduction in eIF4B expression at 2 nM incubated for 24 hrs by Western blot analysis; type: cell-based
[4] = biological target: Myc proto-oncogene protein (Homo sapiens) (UniProt P01106); experiment: Inhibition of c-Myc in human LY7 cells assessed as reduction in E2F1 expression at 5 nM incubated for 24 hrs by Western blot analysis; type: cell-based
[5] = biological target: T1, Casein kinase I isoform epsilon (Homo sapiens, UniProt P49674); experiment: Inhibition of recombinant human full-length N-terminal GST-tagged CK1epsilon expressed in baculovirus infected Sf9 insect cells using casein as substrate measured after 60 mins by ADP-glo kinase assay
Target sequence in this assay (P49674 whole entry, canonical isoform): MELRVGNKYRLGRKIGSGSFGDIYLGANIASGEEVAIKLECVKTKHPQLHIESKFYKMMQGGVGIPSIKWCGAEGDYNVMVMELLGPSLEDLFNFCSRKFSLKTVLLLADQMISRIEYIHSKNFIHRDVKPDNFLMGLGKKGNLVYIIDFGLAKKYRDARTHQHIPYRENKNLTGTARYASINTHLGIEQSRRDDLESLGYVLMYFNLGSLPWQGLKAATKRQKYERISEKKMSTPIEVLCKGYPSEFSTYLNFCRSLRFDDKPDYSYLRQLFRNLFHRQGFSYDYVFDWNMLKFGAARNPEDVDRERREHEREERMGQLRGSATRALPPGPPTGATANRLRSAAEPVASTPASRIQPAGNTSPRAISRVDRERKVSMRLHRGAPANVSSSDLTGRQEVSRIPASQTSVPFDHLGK

[6] = biological target: T1, Casein kinase I isoform epsilon; experiment: Inhibition of recombinant human full-length N-terminal GST-tagged CK1epsilon expressed in baculovirus infected Sf9 insect cells at 50 uM using casein as substrate measured after 60 mins by ADP-glo kinase assay relative to control
Target sequence in this assay (P49674 whole entry, looked up, canonical isoform): as the sequence (P49674 whole entry, canonical isoform) above

[7] = biological target: Serine/threonine-protein phosphatase 2A catalytic subunit alpha isoform (Homo sapiens) (UniProt P67775); experiment: Inhibition of PP2A in human LY7 cells assessed as increase in CK1epsilon autophosphorylation by Western blot analysis; type: cell-based; conditions: time lower […], time upper 30.0 min
Sequence of Serine/threonine-protein phosphatase 2A catalytic subunit alpha isoform (Homo sapiens) (P67775 whole entry, canonical isoform): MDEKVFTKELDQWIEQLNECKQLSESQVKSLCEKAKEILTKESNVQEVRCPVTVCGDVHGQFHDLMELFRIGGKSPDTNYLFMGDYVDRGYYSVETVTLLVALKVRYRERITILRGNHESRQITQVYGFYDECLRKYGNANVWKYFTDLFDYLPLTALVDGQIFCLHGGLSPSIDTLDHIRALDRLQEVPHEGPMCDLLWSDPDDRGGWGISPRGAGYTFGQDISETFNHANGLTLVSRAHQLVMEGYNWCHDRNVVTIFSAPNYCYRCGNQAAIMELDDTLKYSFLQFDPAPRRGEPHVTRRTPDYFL

[8] = biological target: T1, Casein kinase I isoform epsilon; experiment: Inhibition of CK1epsilon in human LY7 cells assessed as reduction in CK1epsilon autophosphorylation at 10 to 25 uM preincubated for 1 hr followed by addition of PP2A inhibitor calyculin A and measured after 15 to 60 mins by Western blot analysis; type: cell-based; conditions: dose 10-25 µM, time lower 75.0 min, time upper […]
Target sequence in this assay (P49674 whole entry, looked up, canonical isoform): as the sequence (P49674 whole entry, canonical isoform) above

[9] = biological target: T1, Casein kinase I isoform epsilon; experiment: Inhibition of CK1epsilon in human LY7 cells assessed as reduction in 4E-BP1 phosphorylation at 25 uM incubated for 24 hrs in presence of […] inhibitor PF4800567 by Western blot analysis; type: cell-based
Target sequence in this assay (P49674 whole entry, looked up, canonical isoform): as the sequence (P49674 whole entry, canonical isoform) above

[10] = biological target: T1, Casein kinase I isoform epsilon; experiment: Inhibition of CK1epsilon in human LY7 cells assessed as reduction in c-Myc expression at 15 to 50 uM measured after 24 hrs by Western blot analysis; type: cell-based; conditions: dose 15-50 µM
Target sequence in this assay (P49674 whole entry, looked up, canonical isoform): as the sequence (P49674 whole entry, canonical isoform) above

[11] = biological target: T1, Casein kinase I isoform epsilon; experiment: Inhibition of CK1epsilon in human LY7 cells assessed as reduction in c-Myc expression at 25 uM incubated for 24 hrs in presence of […] inhibitor PF4800567 by Western blot analysis; type: cell-based
Target sequence in this assay (P49674 whole entry, looked up, canonical isoform): as the sequence (P49674 whole entry, canonical isoform) above

[12] = biological target: T1, Casein kinase I isoform epsilon; experiment: Inhibition of CK1epsilon in human OCILY7 cells transfected with c-myc-5'-UTR-luciferase construct assessed as reduction in c-myc translation at 15 uM incubated for 24 hrs by luciferase reporter gene assay; type: cell-based
Target sequence in this assay (P49674 whole entry, looked up, canonical isoform): as the sequence (P49674 whole entry, canonical isoform) above

[13] = biological target: T1, Casein kinase I isoform epsilon; experiment: Inhibition of CK1epsilon in human LY7 cells assessed as reduction in CK1epsilon autophosphorylation at 1 uM preincubated for 1 hr followed by addition of PP2A inhibitor calyculin A and measured after 15 to 60 mins by Western blot analysis; type: cell-based; conditions: time lower 75.0 min, time upper […]

inhibition [1]	inhibition [2]	inhibition [3]	inhibition [4]	EC50 [5]	SMILES	also measured
inactive	inactive	inactive	inactive	–	CC(C)C[C@H](NC(=O)[C@H](CCc1ccccc1)NC(=O)CN1CCOCC1)C(=O)N[C@@H](Cc1ccccc1)C(=O)N[C@@H](CC(C)C)C(=O)[C@@]1(C)CO1	–
–	–	–	–	81.2 µM	CC[C@@H](c1nc2cccc(F)c2c(=O)n1-c1ccccc1)n1nc(-c2ccc(OC(C)C)c(F)c2)c2c(N)ncnc21	inhibition [6]: < 50%
–	–	–	–	–	COC[C@@H]([C@H](O)[C@H](O)C(=O)NCC[C@H](C)c1nc(/C=C/C[C@@H]2O[C@]3(C[C@@H](O)[C@@H]2C)O[C@H]([C@H](C[C@H](O)[C@H](C)[C@H](O)[C@H](C)/C=C(C)/C(C)=C/C=C/C(C)=C\C#N)OC)[C@H](OP(=O)(O)O)C3(C)C)co1)N(C)C	inhibition [7]: Dose-Dependent Effect
–	–	–	–	9.36 µM	CC(C)Oc1ccc(-c2nn([C@@H](C)c3nc4cccc(F)c4c(=O)n3-c3ccccc3)c3ncnc(N)c23)cc1F	inhibition [8]: Active
inactive	inactive	inactive	inactive	–	CC(C)C[C@H](NC(=O)[C@H](Cc1ccccc1)NC(=O)c1cnccn1)B(O)O	–
–	–	–	–	0.0074 µM	Nc1ncnc2c1c(COc1cccc(Cl)c1)nn2C1CCOCC1	inhibition [9]: Active; inhibition [10]: Active; inhibition [11]: Active; inhibition [12]: inactive; inhibition [13]: Active
